Five compounds from patent US20150065440A1 (Progen Pharmaceuticals Limited, priority 2007, published 2015) can be followed below.

Where two headings read alike, the source gives them in different places.

Assay [1] has as its system HUVEC proliferation induced by FGF-1. Kind of assay: Growth factor induced endothelial cell proliferation assay, FGF-1. It counts as cell-based, human. Particulars: 72 h, read-out: FGF-1 (IC50) inhibition of HUVEC proliferation. An excerpt:
(§1) HUVEC cells were maintained and subcultured according to standard cell culture protocols essentially as described by Lonza. Briefly, cells were maintained in Lonza endothelial growth media (EGM) with recommended supplements and growth factors (VEGF, FGF2, EFG, IGF, hydrocortisone, fetal bovine serum (FBS), ascorbic acid, heparin and gentamicin). Cells were subcultured when they reached 70-80% confluence by trypsinisation and reseeding in fresh growth medium in new culture vessels at 2500 to 5000 cells/cm^2 of vessel surface area. Cell counts were performed using a haemocytometer and viable cells were visualized with trypan blue.
(§2) Medium for the proliferation studies was prepared using EGM with 2% FBS and gentamicin only. In a later study, complete EGM was used for the VEGF groups in an attempt to enhance the proliferative index of VEGF-stimulated groups. For the tube formation assay, complete medium was used with only heparin omitted. Compounds under investigation were weighed out from powder stocks and diluted in PBS to 10 mM stock solutions and stored at −80° C. For experiments, compounds were subsequently diluted in EBM-2 medium (supplemented with 2% FBS and gentamicin) to various working concentration as required.
(§3) In the first of a series of experiments, the assay was further optimized by examining the cell density and growth factor concentration required to induce maximal proliferation by growth factors. Briefly, 100 μL of cells was added to each well at concentrations between 1-3×10^3 per well. Growth factors and test compounds were then added in 50 μL volumes at specified concentrations to obtain a final volume of 200 μL. Following incubation for 70 h, 20 μL of the CellTitre 96® Aqueous One Solution Cell Proliferation Assay (Promega) was added for 2 h prior to reading the absorbance at 490 nm to obtain OD values.

Another assay has as its system HUVECs. Nature of the assay: Matrigel microtubule formation assay. It counts as cell-based, human. Particulars: for Microtubule Formation % inhibition at 10 μM: relative to controls. The procedure:
as §2
The tube formation assay was performed essentially as described by Malinda et al., with modifications.^41 HUVECs in the fourth or fifth passage at 70-80% confluence were harvested and resuspended in Lonza endothelial growth medium (EGM2) containing all supplements as directed by manufacturer, except heparin, at a cell density of 4×10^5 cells per mL. For each set of triplicate wells, 200 μL of cells (4×10^5/mL) were treated with an equal volume of compound to obtain final concentrations of 10, 50 or 100 μM (thus ensuring 1×300 μL are available for each condition). A 100 μL aliquot of cells was then plated onto 96-well plates pre-coated with growth factor reduced Matrigel™ (50 μL for 30 min followed by a further 30 μL for 1 h) and incubated for 18-22 h. Tube formation was examined by phase-contrast microscopy and images were collected using an Olympus C5050 digital camera. Tube formation inhibition was quantitated manually from images by recording the total number of nodes connecting 3 or more tubules. Untreated HUVECs were used as a control for normal cell growth and tube formation in Matrigel.

The subject of assay [2] is HUVEC proliferation induced by FGF-2. Nature of the assay: Growth factor induced endothelial cell proliferation assay, FGF-2. Type of assay: cell-based, human. Particulars: 72 h, read-out: FGF-2 (IC50) inhibition of HUVEC proliferation.
Source text: as §1, §2, §3

Assay [3] has as its system HUVEC proliferation induced by VEGF. Kind of assay: Growth factor induced endothelial cell proliferation assay, VEGF. The note with it: 72 h, read-out: VEGF (IC50) inhibition of HUVEC proliferation. Type of assay: cell-based, human.
Source text: as §1, §2, §3

The next assay relates to HSV-1. Nature of the assay: Viral plaque number-reduction assay, HSV-1. The note with it: plaques in GMK AH1 cells (Table 9, footnote b). The procedure:
African green monkey kidney (GMK AH1) cells^46 were cultured in Eagle's minimum essential medium (EMEM) supplemented with 2% calf serum, 0.05% Primaton RL substance (Kraft Inc., Norwich, USA) and antibiotics. Human epidermoid carcinoma (HEp-2) cells were cultured in Dulbecco's modified EMEM (DMEM) supplemented with 10% fetal calf serum and antibiotics. […] The RSV strain A-2^50 was used. The RSV stock was prepared as described by Hallak et al.^51 and stored at −70° C. in the presence of 40% sucrose^52.
The viral infectivity (the plaque number-reduction) assay and the plaque size-reduction assay were carried out as described previously^17. […] Subsequently, the cells were washed with 2 mL of EMEM and overlaid with 1% methylcellulose solution in EMEM. The plaques were visualized by staining with crystal violet solution after 2 (HSV-2) or 3 (HSV-1) days of incubation at 37° C. […] When the compounds were screened for anti-HSV or anti-RSV activity, mixtures of 200 PFU of the virus and the test compound (100 μg/mL) in serum-free EMEM were incubated for 10 min at room temperature before addition to cells and during the entire period of viral infection of cells and the development of viral plaques. In the plaque size-reduction assay, the compounds were added to cells (in methylcellulose overlay medium) after 2 h period of virus infection of cells in the absence of the inhibitor. After 2-3 days of incubation at 37° C., the viral plaques were visualized by staining the cells with 1% solution of crystal violet. For each compound tested, the images of twenty neighboring plaques were captured using a Leica DC300 digital camera attached to a Leitz-Wetzlar Diavert microscope. The area of each plaque was determined using IM500 image software (Leica). Similar protocols were used for RSV, except that the assays were performed in HEp-2 cells and DMEM supplemented with 2% heat-inactivated fetal calf serum was used instead of EMEM.

Regarding `CC(C)CCC[C@@H](C)[C@H]1CC[C@H]2[C@@H]3CC[C@H]4C[C@@H](O[C@H]5O[C@H](COS(=O)(=O)O)[C@@H](OS(=O)(=O)O)[C@H](OS(=O)(=O)O)[C@@H]5O[C@H]5O[C@H](COS(=O)(=O)O)[C@@H](OS(=O)(=O)O)[C@H](OS(=O)(=O)O)[C@@H]5OS(=O)(=O)O)CC[C@]4(C)[C@H]3CC[C@]12C` [Compound 33, 3β-Cholestanyl 2,3,4,6-tetra-O-sodium sulfonato-α-D-mannopyranosyl-(1→2)-3,4,6-tri-O-sodium sulfonato-α-D-mannopyranoside], the IC50 in assay [1] (Homo sapiens, HUVEC) is more than 10000 nM; in assay [2] (Homo sapiens, HUVEC), 2220 nM; in assay [3] (Homo sapiens, HUVEC), 1850 nM. Also, the inhibition (in general, the percentage by which the read-out fell short of the control) at 10 µM in the assay on HUVECs (Homo sapiens, HUVEC, read-out: Microtubule Formation % inhibition at 10 μM) came to 14%.
Take `CC(C)CCC[C@@H](C)[C@H]1CC[C@H]2[C@@H]3CCC4CC(O[C@H]5O[C@H](COS(=O)(=O)[O-])[C@@H](OS(=O)(=O)[O-])[C@H](O[C@H]6O[C@H](COS(=O)(=O)[O-])[C@@H](OS(=O)(=O)[O-])[C@H](O[C@H]7O[C@H](COS(=O)(=O)[O-])[C@@H](OS(=O)(=O)[O-])[C@H](OS(=O)(=O)[O-])[C@@H]7OS(=O)(=O)[O-])[C@@H]6OS(=O)(=O)[O-])[C@@H]5OS(=O)(=O)[O-])CC[C@]4(C)[C@H]3CC[C@]12C.[Na+].[Na+].[Na+].[Na+].[Na+].[Na+].[Na+].[Na+].[Na+].[Na+]` (stereo partly drawn) [Compound 56, 3′-Cholestanyl 2,3,4,6-tetra-O-sodium sulfonato-α-D-mannopyranosyl-(1→3)-2,4,6-tri-O-sodium sulfonato-α-D-mannopyranosyl-(1→3)-3,4,6-tri-O-sodium sulfonato-α-D-mannopyranoside]: the IC50 in assay [1] amounted to 2520 nM; in assay [2], 1800 nM; in assay [3], 1720 nM. Besides, in the assay on HUVECs, the “Microtubule Formation % inhibition at 10 μM” value was found to be 67%.
The matching figures for `CC(C)CCC[C@@H](C)[C@H]1CC[C@H]2[C@@H]3CCC4C[C@@H](OCc5cn(CCCO[C@H]6O[C@H](COS(=O)(=O)[O-])[C@@H](OS(=O)(=O)[O-])[C@H](O[C@H]7O[C@H](COS(=O)(=O)[O-])[C@@H](OS(=O)(=O)[O-])[C@H](O[C@H]8O[C@H](COS(=O)(=O)[O-])[C@@H](OS(=O)(=O)[O-])[C@H](OS(=O)(=O)[O-])[C@@H]8OS(=O)(=O)[O-])[C@@H]7OS(=O)(=O)[O-])[C@@H]6OS(=O)(=O)[O-])nn5)CC[C@]4(C)[C@H]3CC[C@]12C.[Na+].[Na+].[Na+].[Na+].[Na+].[Na+].[Na+].[Na+].[Na+].[Na+]` (stereo partly drawn) [Compound 60, 3-{4-(Cholestan-3β-yl-oxymethyl)-[1,2,3]triazol-1-yl}propyl 2,3,4,6-tetra-O-sodium sulfonato-α-D-mannopyranosyl-(1→3)-2,4,6-tri-O-sodium sulfonato-α-D-mannopyranosyl-(1→3)-3,4,6-tri-O-sodium sulfonato-α-D-mannopyranoside]: 2610 nM, 1220 nM, 1440 nM and 49%.
On to `CC(C)CCC[C@@H](C)[C@H]1CC[C@H]2[C@@H]3CCC4CC(OCc5cn([C@@H]6O[C@H](COS(=O)(=O)[O-])[C@@H](O[C@H]7O[C@H](COS(=O)(=O)[O-])[C@@H](O[C@H]8O[C@H](COS(=O)(=O)[O-])[C@@H](OS(=O)(=O)[O-])[C@H](OS(=O)(=O)[O-])[C@H]8OS(=O)(=O)[O-])[C@H](OS(=O)(=O)[O-])[C@H]7OS(=O)(=O)[O-])[C@H](OS(=O)(=O)[O-])[C@H]6OS(=O)(=O)[O-])nn5)CC[C@]4(C)[C@H]3CC[C@]12C.[Na+].[Na+].[Na+].[Na+].[Na+].[Na+].[Na+].[Na+].[Na+].[Na+]` (stereo partly drawn) [Compound 70, 4-(Cholestan-3-yl-oxymethyl)[1,2,3]triazol-1-yl 2,3,4,6-tetra-O-sodium sulfonato-α-D-glucopyranosyl-(1→4)-2,3,6-tri-O-sodium sulfonato-α-D-glucopyranosyl-(1→4)-1-deoxy-2,3,6-tri-O-sodium sulfonato-β-D-glucopyranoside], for which the results for the IC50 in assay [1], in assay [2] and in assay [3] were 2300 nM, 640 nM and 2200 nM, respectively. Besides, the “Microtubule Formation % inhibition at 10 μM” value with HUVECs was 52%. Besides, in the assay with HSV-1, the “HSV-1 KOS321 strain IC50” value was found to be 0.25 µg/mL.
Take `CCCCCCCCCCCCCCCCCC(=O)NCCCO[C@@H]1O[C@H](COS(=O)(=O)[O-])[C@@H](O[C@H]2O[C@H](COS(=O)(=O)[O-])[C@@H](O[C@H]3O[C@H](COS(=O)(=O)[O-])[C@@H](O[C@H]4O[C@H](COS(=O)(=O)[O-])[C@@H](OS(=O)(=O)[O-])[C@H](OS(=O)(=O)[O-])[C@H]4OS(=O)(=O)[O-])[C@H](OS(=O)(=O)[O-])[C@H]3OS(=O)(=O)[O-])[C@H](OS(=O)(=O)[O-])[C@H]2OS(=O)(=O)[O-])[C@H](OS(=O)(=O)[O-])[C@H]1OS(=O)(=O)[O-].[Na+].[Na+].[Na+].[Na+].[Na+].[Na+].[Na+].[Na+].[Na+].[Na+].[Na+].[Na+].[Na+]` [Compound 128, 3-Stearamidopropyl 2,3,4,6-tetra-O-sulfo-α-D-glucopyranosyl-(1→4)-2,3,6-tri-O-sulfo-α-D-glucopyranosyl-(1→4)-2,3,6-tri-O-sulfo-α-D-glucopyranosyl-(1→4)-2,3,6-tri-O-sulfo-β-D-glucopyranoside, tridecasodium salt]: the IC50 in assay [2] (Homo sapiens, HUVEC) is 770 nM.
